# Data as given in publication PMC9015998, “Non-clinical Pharmacology of YTX-7739: a Clinical Stage Stearoyl-CoA Desaturase Inhibitor Being Developed for Parkinson’s Disease” (Molecular Neurobiology, 2022).
# Molecular target: T1, rat SCD (Rattus norvegicus, UniProt P07308)
# T1 construct: rat liver microsomes (RLMs) isolated from rats fed a […] to induce SCD expression; from tissue; host or cells: rat liver microsomes (SCD-induced by diet); assay run at PureHoney Technologies
# T1 sequence (P07308 1-358): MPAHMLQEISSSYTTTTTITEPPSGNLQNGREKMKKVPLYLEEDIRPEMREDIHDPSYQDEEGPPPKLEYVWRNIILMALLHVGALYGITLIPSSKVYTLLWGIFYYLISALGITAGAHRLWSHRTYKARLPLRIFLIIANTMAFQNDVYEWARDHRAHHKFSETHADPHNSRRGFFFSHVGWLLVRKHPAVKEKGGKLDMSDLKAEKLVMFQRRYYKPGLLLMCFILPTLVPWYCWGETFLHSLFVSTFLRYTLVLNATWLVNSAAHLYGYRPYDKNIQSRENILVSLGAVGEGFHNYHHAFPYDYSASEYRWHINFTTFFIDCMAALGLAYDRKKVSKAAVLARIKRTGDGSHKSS
# Assay: SCD enzyme assay in SCD-induced rat liver microsomes (RLM)
# Assay type: biochemical
# Details: C17:0-CoA substrate, Rapid-Fire mass spectrometry
# Protocol: The SCD biochemical assay has been described previously (Vincent et al., 2018). In brief, SCD-induced rat liver microsomes (RLM) were isolated from […] fed a high-carbohydrate, low-fat diet for 5 days. RLM were then used in an optimized biochemical assay using C17:0-CoA as a substrate (Avanti Lipids, #870,717) and Rapid-Fire mass spectrometry to quantify conversion to C17:1-CoA. The RLM assay was performed at PureHoney Technologies (Billerica, MA).
# An iterative medicinal chemistry campaign identified YTX-7739 as a SCD inhibitor that reduced conversion of saturated to unsaturated fatty acids (Fig. 1A). The potency of YTX-7739 in inhibiting SCD activity was initially assessed in rat liver microsomes (RLMs) isolated from rats fed a […] to induce SCD expression. RLMs were then used in conjunction with a synthetic C17:0-CoA SCD substrate and rapid-fire mass spectrometry to assess enzyme activity.
# Fig. 1 Characterization of in vitro properties of YTX-7739. A SCD reaction converting CoA-linked saturated to monounsaturated fatty acids of 16 (palmitoleic acid) or 18 (oleic acid) carbons in length. […] B YTX-7739 and a reference SCD inhibitor (CAY10566) was tested in a biochemical assay using SCD-induced RLM and C17:0-CoA with Rapid-Fire mass spectrometry as an analytical readout. […] The calculated IC50 values are inset. […]
smiles,measurement,value
Cc1nnc(-c2ccc(N3CCC(Oc4cc(F)ccc4Cl)CC3)nn2)o1 [CAY10566],IC50,1.1 nM
